“Also recorded” adds a separate entry of the source.
Tested on: HNDFs
Experiment: Trypan blue exclusion cell proliferation assay in HNDFs
Assay type: cell-based, human
Conditions: 72 h
Procedure: To further clarify the effect of antcins, HG-induced reduction in cell proliferation is determined. In FIG. 2D, to determine the effect of antcins on cell proliferation efficacy, 5×10^4 cells/well of HNDFs are incubated with antcins in 6-well plates in the presence of HG (30 mM) for 72 h. Number of viable cells is quantified by the tryphan blue exclusion method. Results are expressed as mean±S.E.M of three indipendent expriments. Statistical significance is set at ^ϕP<0.05 as compared to NG vs. HG and *P<0.05 as compared to HG vs. samples. […] Therefore, the molecular mechanism underlying the protective effect of ANM is explored next.
Furthermore, in FIG. 3C, to determine the effect of ANM or NAC on cell proliferation, 5×10^4 cells/well of HNDFs are incubated in a 6-well plate with ANM (10 μM) or NAC (100 μM) in the presence of HG (30 mM) for 72 h. Number of viable cells is quantified by the tryphan blue exclusion method. Results expressed as mean±S.E.M of three independent experiments. Statistical significance is set at ^ϕP<0.05 as compared to NG vs. HG and *P<0.05 as compared to HG vs. samples.
Cell proliferation is evaluated using trypan blue exclusion assay as described previously with minor modification. Cells are plated into 6-well plates at a density of 5×10^4 cells/well. After incubation overnight, cells are treated with test samples in the presence or absence of HG for 24-72 h. Cells exposed to 0.2% Trypan blue are then counted in a hemocytometer, and cells stained with Trypan blue are excluded. Percentage of viable cells is calculated based on the ratio of viable cells to total cell population in each well. The proliferation rate is calculated based on the number of viable cells in HG or sample-treated groups versus the NG-treated group.

## C=C(CCC(C)C1CCC2C3=C(C(=O)C(O)C21C)C1(C)CCC(O)C(C)C1CC3)C(C)C(=O)O (centres unmarked) [ANM, antcin M]
ANM 10 μM + HG
  HG-induced reduction in cell number, control siRNA cells: significantly blocked
  protection of cell number, SIRT-1 siRNA transfected cells: partial protection
ANM + HG
  HG-induced reduction in cell proliferation, Nrf2 knock-down cells: partially inhibited
  cell proliferation, Nrf2 and SIRT-1 knock-down cells: fails to rescue
Antcins 10 μM + HG 30 mM, trypan blue exclusion
  cell proliferation (number of viable cells) vs HG group: two-fold increase; also recorded: increased cell proliferation

Reference: patent US20180318199A1, “Pharmaceutical Composition Having Anti-Aging Properties against High-Glucose” (TAIWAN LEADER BIOTECH CORP., priority 2017, published 2018)
